Data on 21 compounds can be found in PubChem BioAssay AID256 (DTP/NCI, 2004).

This test deals with CD2F1 mice, L1210 leukemia ip, survival T/C. Description: NCI In Vivo Anticancer Drug Screen. Data for tumor model L1210 Leukemia (intraperitoneal) in CD2F1 (CDF1) mice. To be noted: higher = longer survival. The method in brief:
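Mice carrying a transplanted tumor received test compound or vehicle alone. The value is the measurement in the treated group divided by that in the vehicle-treated control group.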

[1] abbreviates: endpoint: mean survival time, dose: 100.0 mg/kg/injection, schedule: Q01DX009 (ip), vehicle: saline.
Where [2] appears, read: endpoint: mean survival time, dose: 200.0 mg/kg/injection, schedule: Q01DX009 (ip), vehicle: saline.
The mark [3] stands for this setting: endpoint: mean survival time, dose: 400.0 mg/kg/injection, schedule: Q01DX009 (ip), vehicle: saline.
Setting [4] is: endpoint: mean survival time, dose: 100.0 mg/kg/injection, schedule: Q04DX003 (ip), vehicle: saline with Tween-80.
[5] abbreviates: endpoint: mean survival time, dose: 200.0 mg/kg/injection, schedule: Q04DX003 (ip), vehicle: saline with Tween-80.
Where [6] appears, read: endpoint: mean survival time, dose: 400.0 mg/kg/injection, schedule: Q04DX003 (ip), vehicle: saline with Tween-80.
The mark [7] stands for this setting: endpoint: mean survival time, dose: 50.0 mg/kg/injection, schedule: Q01DX009 (ip), vehicle: saline with Tween-80.

Toxic doses and inconclusive results are not listed.

Regarding `CC(=O)OC1CCC2(C)C(CCC3C2CC(OC(C)=O)C2(C)C3CCC2C2(C)SCCS2)C1` (centres undefined), the T/C is, setting by setting: (endpoint: mean survival time, dose: 50.0 mg/kg/injection, schedule: Q04DX002 (ip), vehicle: Klucel (hydroxypropylcellulose) (HPC)) 95 % of control; (endpoint: mean survival time, dose: 100.0 mg/kg/injection, schedule: Q04DX002 (ip), vehicle: Klucel (hydroxypropylcellulose) (HPC)) 98 % of control; (endpoint: mean survival time, dose: 200.0 mg/kg/injection, schedule: Q04DX002 (ip), vehicle: Klucel (hydroxypropylcellulose) (HPC)) 88 % of control.

On to `O=c1[nH]c2ccc(Br)cc2c(=O)o1`, for which the T/C was 104 % of control under setting [1], 116 % of control under setting [2] and 108 % of control under setting [3].

As to `CC(C)(C)[Si](C)(C)Oc1ncc(F)c(O[Si](C)(C)C(C)(C)C)n1`, the T/C was 123 % of control (endpoint: mean survival time, dose: 5.0 mg/kg/injection, schedule: Q01DX009 (ip), vehicle: distilled water + Tween-80); 113 % of control (endpoint: mean survival time, dose: 10.0 mg/kg/injection, schedule: Q01DX009 (ip), vehicle: distilled water + Tween-80); 123 % of control (endpoint: mean survival time, dose: 20.0 mg/kg/injection, schedule: Q01DX009 (ip), vehicle: distilled water + Tween-80).

`COc1ccc(C(O)(c2ccccc2)C(C)O)cc1` (centres undefined): the T/C is 101 % of control under setting [4], 98 % of control under setting [5] and 98 % of control under setting [6].

For the compound `CCCCCCCCCCCCCCCCCC[n+]1cccc(C(=O)c2ccccc2)c1`, the T/C by setting is: (endpoint: mean survival time, dose: 9.38 mg/kg/injection, schedule: Q01DX001 (ip), vehicle: other) 100 % of control; (endpoint: mean survival time, dose: 18.75 mg/kg/injection, schedule: Q01DX001 (ip), vehicle: other) 108 % of control.

For the compound `C1CN(CC2COC(CN3CCOCC3)CO2)CCO1` (centres undefined), the T/C is 102 % of control under setting [1], 102 % of control under setting [2] and 104 % of control under setting [3].

Take `COc1ccc(CC(N)C(=O)OCc2ccccc2)cc1N(CCCl)CCCl` (centres undefined): the T/C (endpoint: mean survival time, dose: 3.0 mg/kg/injection, schedule: Q01DX009 (ip), vehicle: saline) was 177 % of control and the T/C (endpoint: mean survival time, dose: 6.0 mg/kg/injection, schedule: Q01DX009 (ip), vehicle: saline) was 118 % of control.

For the compound `N#CC1C(=O)c2ccccc2C1=O`, the T/C is, setting by setting: (endpoint: mean survival time, dose: 25.0 mg/kg/injection, schedule: Q04DX003 (ip), vehicle: saline with Tween-80) 91 % of control; (endpoint: mean survival time, dose: 50.0 mg/kg/injection, schedule: Q04DX003 (ip), vehicle: saline with Tween-80) 93 % of control; under setting [4], 93 % of control.

Turning to `CC(C)(C)C1CC(=O)N(c2ccccc2)N1` (centres undefined), the T/C under setting [4] is 106 % of control, the T/C under setting [5] was 98 % of control and the T/C under setting [6] was 98 % of control.

Turning to `COC(=O)NCCNC(=O)OC`, the T/C is 98 % of control (endpoint: mean survival time, dose: 100.0 mg/kg/injection, schedule: Q01DX001 (ip), vehicle: saline); 98 % of control (endpoint: mean survival time, dose: 200.0 mg/kg/injection, schedule: Q01DX001 (ip), vehicle: saline); 101 % of control (endpoint: mean survival time, dose: 400.0 mg/kg/injection, schedule: Q01DX001 (ip), vehicle: saline).

Consider `CC(=O)OCC1OC(n2cnc(C(=O)O)c2N)C(OC(C)=O)C1OC(C)=O` (centres undefined), for which the T/C by setting is: (endpoint: median survival time, dose: 8.75 mg/kg/injection, schedule: Q01DX005 (ip), vehicle: saline) 98 % of control; (endpoint: median survival time, dose: 17.5 mg/kg/injection, schedule: Q01DX005 (ip), vehicle: saline) 100 % of control; (endpoint: median survival time, dose: 35.0 mg/kg/injection, schedule: Q01DX005 (ip), vehicle: saline) 96 % of control; (endpoint: median survival time, dose: 70.0 mg/kg/injection, schedule: Q01DX005 (ip), vehicle: saline) 96 % of control; (endpoint: median survival time, dose: 140.0 mg/kg/injection, schedule: Q01DX005 (ip), vehicle: saline) 98 % of control.

Take `Nc1nc2c(ncn2C2CC3[O][Sn]([c]4ccccc4)([c]4ccccc4)[O]CC3O2)c(=O)[nH]1` (centres undefined): the T/C (endpoint: mean survival time, dose: 6.25 mg/kg/injection, schedule: Q01DX005 (ip), vehicle: distilled water + Tween-80) was 104 % of control; the T/C (endpoint: mean survival time, dose: 12.5 mg/kg/injection, schedule: Q01DX005 (ip), vehicle: distilled water + Tween-80) was 93 % of control; the T/C (endpoint: mean survival time, dose: 25.0 mg/kg/injection, schedule: Q01DX005 (ip), vehicle: distilled water + Tween-80) was 93 % of control; the T/C (endpoint: mean survival time, dose: 50.0 mg/kg/injection, schedule: Q01DX005 (ip), vehicle: distilled water + Tween-80) was 90 % of control; the T/C (endpoint: mean survival time, dose: 100.0 mg/kg/injection, schedule: Q01DX005 (ip), vehicle: distilled water + Tween-80) is 106 % of control.

As to `COc1ccc(OC)c(NC(=O)Nc2ccc(C)c([N+](=O)[O-])c2)c1`, the T/C by setting is: under setting [7], 98 % of control; (endpoint: mean survival time, dose: 100.0 mg/kg/injection, schedule: Q01DX009 (ip), vehicle: saline with Tween-80) 94 % of control; (endpoint: mean survival time, dose: 200.0 mg/kg/injection, schedule: Q01DX009 (ip), vehicle: saline with Tween-80) 94 % of control.

Turning to `CCNCc1cc(Nc2cc(C)nc(/N=C(\N)Nc3ccc(Cl)c(Cl)c3)n2)ccc1OC`, the T/C (endpoint: mean survival time, dose: 25.0 mg/kg/injection, schedule: Q01DX009 (ip), vehicle: Klucel (hydroxypropylcellulose) (HPC)) was 100 % of control.

For `CCCCCCCCC(O)C(O)CCCCCCCC(=O)O` (centres undefined), the T/C was 93 % of control (endpoint: mean survival time, dose: 100.0 mg/kg/injection, schedule: Q04DX003 (ip), vehicle: other); 98 % of control (endpoint: mean survival time, dose: 200.0 mg/kg/injection, schedule: Q04DX003 (ip), vehicle: other); 95 % of control (endpoint: mean survival time, dose: 400.0 mg/kg/injection, schedule: Q04DX003 (ip), vehicle: other).

Turning to `COC12C(COC(N)=O)C3=C(C(=O)C(C)=C(N4CC4)C3=O)N1CC1NC12` (centres undefined), the T/C is 124 % of control (endpoint: mean survival time, dose: 0.14 mg/kg/injection, schedule: Q01DX007 (ip), vehicle: acetone); 106 % of control (endpoint: mean survival time, dose: 0.25 mg/kg/injection, schedule: Q01DX001 (ip), vehicle: acetone); 116 % of control (endpoint: mean survival time, dose: 0.33 mg/kg/injection, schedule: Q01DX001 (ip), vehicle: acetone); 153 % of control (endpoint: mean survival time, dose: 0.5 mg/kg/injection, schedule: Q01DX007 (ip), vehicle: acetone); 151 % of control (endpoint: mean survival time, dose: 1.0 mg/kg/injection, schedule: Q01DX001 (ip), vehicle: carboxymethylcellulose (CMC)); 114 % of control (endpoint: mean survival time, dose: 1.5 mg/kg/injection, schedule: Q01DX001 (ip), vehicle: carboxymethylcellulose (CMC)).

For `O=C1NCC1c1ccccc1` (centres undefined), the T/C by setting is: (endpoint: median survival time, dose: 25.0 mg/kg/injection, schedule: Q04DX003 (ip), vehicle: saline with Tween-80) 90 % of control; (endpoint: median survival time, dose: 50.0 mg/kg/injection, schedule: Q04DX003 (ip), vehicle: saline with Tween-80) 90 % of control; (endpoint: median survival time, dose: 100.0 mg/kg/injection, schedule: Q04DX003 (ip), vehicle: saline with Tween-80) 100 % of control; (endpoint: median survival time, dose: 200.0 mg/kg/injection, schedule: Q04DX003 (ip), vehicle: saline with Tween-80) 90 % of control.

As for `CCC[CH2][Sn]1([CH2]CCC)[O]OC2(CCCCC2)[O]1`, the T/C is, setting by setting: (endpoint: mean survival time, dose: 1.25 mg/kg/injection, schedule: Q01DX009 (ip), vehicle: saline with Tween-80) 105 % of control; (endpoint: mean survival time, dose: 2.5 mg/kg/injection, schedule: Q01DX009 (ip), vehicle: saline with Tween-80) 105 % of control; (endpoint: mean survival time, dose: 5.0 mg/kg/injection, schedule: Q01DX009 (ip), vehicle: saline with Tween-80) 105 % of control.

`C1CC1C(=NN=C(C1CC1)C1CC1)C1CC1`: the T/C (endpoint: mean survival time, dose: 25.0 mg/kg/injection, schedule: Q01DX009 (ip), vehicle: saline with Tween-80) is 97 % of control; the T/C under setting [7] is 101 % of control; the T/C under setting [4] is 86 % of control.

Take `COc1ccc(OC)c2c1CC(C(C)=O)CC2=O` (centres undefined): the T/C (endpoint: mean survival time, dose: 12.5 mg/kg/injection, schedule: Q01DX009 (ip), vehicle: water) is 98 % of control; the T/C (endpoint: mean survival time, dose: 25.0 mg/kg/injection, schedule: Q01DX009 (ip), vehicle: water) was 102 % of control; the T/C (endpoint: mean survival time, dose: 50.0 mg/kg/injection, schedule: Q01DX009 (ip), vehicle: water) was 106 % of control; the T/C (endpoint: mean survival time, dose: 100.0 mg/kg/injection, schedule: Q01DX009 (ip), vehicle: water) is 100 % of control; the T/C (endpoint: mean survival time, dose: 200.0 mg/kg/injection, schedule: Q01DX009 (ip), vehicle: water) is 92 % of control.

Regarding `CCOC(=O)Nc1cnc2nc[nH]c2c1N(C)C`, the T/C is 104 % of control (endpoint: mean survival time, dose: 100.0 mg/kg/injection, schedule: Q01DX001 (ip), vehicle: carboxymethylcellulose (CMC)); 104 % of control (endpoint: mean survival time, dose: 200.0 mg/kg/injection, schedule: Q01DX001 (ip), vehicle: carboxymethylcellulose (CMC)); 124 % of control (endpoint: mean survival time, dose: 400.0 mg/kg/injection, schedule: Q01DX001 (ip), vehicle: carboxymethylcellulose (CMC)).
